Source: ChEMBL document CHEMBL5120909, “Reshaping an Acyclic Nucleoside Phosphonate into a Selective Anti-hepatitis B Virus Compound” (J Med Chem, 2022)

What was measured:
[1] = Cytotoxicity against human HEL cells assessed as change in cell morphology measured after 3 days […]; type: toxicity, cell-based; details: time 3 day
Hepatitis B virus [2] = test: Antiviral activity against wild type HBV infected in human HepG2 2.2.15 cells assessed as reduction in viral replication pre incubated for 3 days followed by replacement with fresh compounds for another 3 days prior to pronase treatment by RT-qPCR analysis; type: functional, organism-based, HepG2.2.15; details: for EC50: HepG2.2.15; for EC90: HepG2.2.15, 144 h, time 6 day
[3] = (§1) Selectivity index, ratio of CC50 for cytotoxicity against human MT4 cells assessed as reduction in cell viability by MTT assay to EC50 for anti-HIV activity against wild type HIV-1 IIIB infected in human MT4 cells assessed as inhibition of HIV-induced cytopathic effect measured after 5 days by MTT assay; type: toxicity, cell-based; details: read-out: Ratio CC50/EC50
Human betaherpesvirus 5 [4] = test: Antiviral activity against HCMV Davis infected in HEL cells assessed as reduction in virus plaque formation; type: functional, organism-based; details: Human betaherpesvirus 5, Davis
Human alphaherpesvirus 3 [5] = test: Antiviral activity against VZV TK- infected in HEL cells assessed as reduction in virus plaque formation; type: functional, organism-based; details: Human alphaherpesvirus 3, TK-
Human betaherpesvirus 5 [6] = test: Antiviral activity against HCMV AD-169 infected in HEL cells assessed as reduction in virus plaque formation; type: functional, organism-based; details: Human betaherpesvirus 5, AD-169, HEL
HepG2 2.2.15 [7] = test: Cytotoxicity against human HepG2.2.15 cells assessed as reduction in cell viability incubated for 1 to 4 hrs by MTS uptake assay; type: functional; details: time 1-4 hrs
[8] = Cytotoxicity against human MT4 cells assessed as reduction in cell viability by MTT assay; type: toxicity, cell-based
[9] = test system: Human immunodeficiency virus 2; test: Anti-HIV activity against wild type HIV-2 ROD infected in human MT4 cells assessed as inhibition of HIV-induced cytopathic effect measured after 5 days by MTT assay; type: functional, organism-based; details: Human immunodeficiency virus 2, ROD, MT4, 120 h
[10] = test system: Human immunodeficiency virus 1; test: Anti-HIV activity against wild type HIV-1 IIIB infected in human MT4 cells assessed as inhibition of HIV-induced cytopathic effect measured after 5 days by MTT assay; type: functional, organism-based; details: Human immunodeficiency virus 1, IIIB, MT4, 120 h
Human alphaherpesvirus 3 [11] = test: Antiviral activity against VZV TK+ infected in HEL cells assessed as reduction in virus plaque formation; type: functional, organism-based; details: Human alphaherpesvirus 3, TK+
[12] = as §1, with “HIV-2 ROD” for “HIV-1 IIIB”; type: toxicity, cell-based; details: read-out: Ratio CC50/EC50
HepG2 2.2.15 [13] = test: Cytotoxicity against human HepG2.2.15 cells assessed as reduction in cell viability; type: functional
[14] = (§2) Selectivity index, ratio of CC50 for cytotoxicity against human HFF cells infected with HCMV AD-169 virus assessed as reduction in cell viability by cell titer-glo assay to EC50 for antiviral activity against HCMV AD-169 infected in HFF cells assessed as inhibition of virus-induced cytopathic effect measured after 14 days; type: toxicity, cell-based; details: read-out: Ratio CC50/EC50
Human betaherpesvirus 5 [15] = test: Antiviral activity against HCMV AD-169 infected in HFF cells assessed as reduction in viral replication measured after 14 days; type: functional, organism-based; details: Human betaherpesvirus 5, AD-169, HFF, 336 h; for EC90: time 14 day
[16] = as §2, with “VZV Ellen” for “HCMV AD-169”; type: toxicity, cell-based; details: read-out: Ratio CC50/EC50
Human alphaherpesvirus 3 [17] = test: Antiviral activity against VZV Ellen infected in HFF cells assessed as reduction in viral replication measured after 14 days; type: functional, organism-based; details: Human alphaherpesvirus 3, Ellen, 336 h; for EC90: time 14 day
[18] = Cytotoxicity against human HFF cells infected with VZV Ellen virus assessed as reduction in cell viability by cell titer-glo assay; type: toxicity, cell-based
[19] = Cytotoxicity against human HFF cells infected with HCMV AD-169 virus assessed as reduction in cell viability by cell titer-glo assay; type: toxicity, cell-based
HepG2 2.2.15 [20] = test: Cytotoxicity against human HepG2.2.15 cells assessed as reduction in cell viability by neutral red uptake assay; type: functional
[21] = Cytotoxicity against human HEL cells assessed as reduction in cell growth measured after 3 days by coulter counting method; type: toxicity, cell-based; details: time 3 day
Hepatitis B virus [22] = test: Antiviral activity against wild type HBV infected in human HepG2 2.2.15 cells assessed as reduction in viral replication by DNA HYB (Vision)/neutral red (Tox) assay; type: functional, organism-based; details: HepG2.2.15
[23] = Selectivity index, ratio of CC50 cytotoxicity against human HepG2.2.15 cells assessed as reduction in cell viability to EC50 for antiviral activity against wild type HBV infected in human HepG2 2.2.15 cells assessed as reduction in viral replication by DNA HYB (RI)/neutral red (Tox) assay; type: toxicity, cell-based; details: read-out: Selectivity Index
Hepatitis B virus [24] = test: Antiviral activity against wild type HBV infected in human HepG2 2.2.15 cells assessed as reduction in viral replication by DNA HYB (RI)/neutral red (Tox) assay; type: functional, organism-based; details: HepG2.2.15
[25] = Selectivity index, ratio of CC50 cytotoxicity against human HepG2.2.15 cells assessed as reduction in cell viability to EC50 for antiviral activity against wild type HBV infected in human HepG2 2.2.15 cells assessed as reduction in viral replication by DNA HYB (Vision)/neutral red (Tox) assay; type: toxicity, cell-based; details: read-out: Selectivity Index

Structure (SMILES)	MCC at 72 h [1] [µM]	EC50 (Hepatitis B virus [2]) [µM]	EC90 (Hepatitis B virus [2]) [µM]	selectivity ratio at 120 h [3]	EC50 (Human betaherpesvirus 5 [4]) [µM]	EC50 (Human alphaherpesvirus 3 [5]) [µM]	EC50 (Human betaherpesvirus 5 [6]) [µM]	CC50 (HepG2 2.2.15 [7]) [µM]	CC50 [8] [µM]	EC50 [9] [µM]	EC50 [10] [µM]	EC50 (Human alphaherpesvirus 3 [11]) [µM]	selectivity ratio at 120 h [12]	CC50 (HepG2 2.2.15 [13]) [µM]	EC50 (Human betaherpesvirus 5 [15]) [µM]	EC90 (Human betaherpesvirus 5 [15]) [µM]	CC50 [19] [µM]	CC50 (HepG2 2.2.15 [20]) [µM]	also measured
Cc1cn(CC(C)(CO)OCP(=O)(O)O)c(=O)[nH]c1=O (racemic)	> 324	> 100	> 100	1	> 324	253	> 324	> 100	> 406	> 406	> 406	> 324	1						
C#C[C@@](CO)(Cn1cnc2c(=O)[nH]c(N)nc21)OCP(=O)(O)O		0.0187												> 100					
C[C@@](CO)(Cn1cnc2c(=O)[nH]c(N)nc21)OCP(=O)(O)O		0.0423												> 100					
C#CC(CO)(Cn1cnc2c(N)ncnc21)OCP(=O)(O)O (racemic)		25	62	> 14					> 382	18	26.6		> 21		30	> 30	145	> 100	selectivity ratio at 336 h [14]: < 5; selectivity ratio at 336 h [16]: < 4; EC50 (Human alphaherpesvirus 3 [17]): > 30 µM; EC90 (Human alphaherpesvirus 3 [17]): > 30 µM; CC50 [18]: 131 µM
Nc1nc2c(ncn2COC(CO)CO)c(=O)[nH]1 [GANCICLOVIR]															0.86	74.2	> 150		
C#CC(CO)(Cn1ccc(=O)[nH]c1=O)OCP(=O)(O)O (racemic)		21	77	1					> 411	> 411	> 411		1		150	> 150	> 150	> 100	selectivity ratio at 336 h [14]: 1; selectivity ratio at 336 h [16]: > 7; EC50 (Human alphaherpesvirus 3 [17]): 20.5 µM; EC90 (Human alphaherpesvirus 3 [17]): > 150 µM; CC50 [18]: > 150 µM
O=c1[nH]c(=O)n([C@H]2C[C@H](O)[C@@H](CO)O2)cc1/C=C/Br [BRIVUDINE]	> 300				0.34	36.1	0.29					0.07							CC50 at 72 h [21]: > 300 µM
C#CC(CO)(Cn1cc(C)c(=O)[nH]c1=O)OCP(=O)(O)O (racemic)		> 100	> 100	1					> 393	> 393	> 393		1		30	> 30	140	> 100	selectivity ratio at 336 h [14]: < 5; selectivity ratio at 336 h [16]: 5; EC50 (Human alphaherpesvirus 3 [17]): 27.1 µM; EC90 (Human alphaherpesvirus 3 [17]): > 30 µM; CC50 [18]: 139 µM
CC(CO)(Cn1cnc2c(=O)[nH]c(N)nc21)OCP(=O)(O)O (racemic)	300	0.14	38.1	7	5.37	3.6	5.37	> 100	228	42.1	32.5	2.4	5						CC50 at 72 h [21]: 21.6 µM
C#C[C@@](CO)(Cn1cnc2c(=O)[nH]c(N)nc21)OCP(=O)(N[C@@H](Cc1ccccc1)C(=O)OCCC)N[C@@H](Cc1ccccc1)C(=O)OCCC		0.00927												> 100					
C#CC(CO)(Cn1cnc2c(=O)[nH]c(N)nc21)OCP(=O)(O)O (centres undefined)		0.37	0.83	> 97					> 364	1.28	3.73		> 287	> 100	14.4	> 150	> 150	> 100	EC50 (Hepatitis B virus [22]): 0.31 µM; EC90 (Hepatitis B virus [22]): 0.8 µM; selectivity ratio at 336 h [14]: > 10; selectivity ratio at 336 h [16]: > 1; EC50 (Human alphaherpesvirus 3 [17]): 116 µM; EC90 (Human alphaherpesvirus 3 [17]): > 150 µM; CC50 [18]: > 150 µM; selectivity ratio [23]: > 185; EC50 (Hepatitis B virus [24]): 0.54 µM; EC90 (Hepatitis B virus [24]): 1.8 µM; selectivity ratio [25]: > 322
C[C@](CO)(Cn1cnc2c(=O)[nH]c(N)nc21)OCP(=O)(O)O		0.335												> 100					
Nc1ccn([C@@H]2CS[C@H](CO)O2)c(=O)n1 [LAMIVUDINE]		0.04	0.13	> 24				> 2	> 87.2	9.9	2.53		> 9	2120				2120	EC50 (Hepatitis B virus [22]): 0.04 µM; EC90 (Hepatitis B virus [22]): 0.12 µM; selectivity ratio [23]: 16200; EC50 (Hepatitis B virus [24]): 0.13 µM; EC90 (Hepatitis B virus [24]): 0.35 µM; selectivity ratio [25]: 57400
C#CC(CO)(Cn1ccc(N)nc1=O)OCP(=O)(O)O (racemic)		> 100	> 100	1					> 412	> 412	> 412		1		30	> 30	132	> 100	selectivity ratio at 336 h [14]: < 4; selectivity ratio at 336 h [16]: > 10; EC50 (Human alphaherpesvirus 3 [17]): 15.4 µM; EC90 (Human alphaherpesvirus 3 [17]): > 150 µM; CC50 [18]: > 150 µM
CC(CO)(Cn1ccc(N)nc1=O)OCP(=O)(O)O (racemic)	> 341	> 100	> 100	1	37.3	45.6	24.9	> 100	> 426	> 426	> 426	18.8	1						CC50 at 72 h [21]: > 341 µM
C#C[C@](CO)(Cn1cnc2c(=O)[nH]c(N)nc21)OCP(=O)(O)O		0.497												> 100					
CC(CO)(Cn1cnc2c(N)ncnc21)OCP(=O)(O)O (racemic)	> 315	0.82	21.8	1	315	36.9	115	> 100	> 352	> 352	> 352	30.8	1						CC50 at 72 h [21]: 205 µM
CC(CO)(Cn1ccc(=O)[nH]c1=O)OCP(=O)(O)O (racemic)	> 340	> 100	> 100	1	186	340	260	> 100	> 425	> 425	> 425	270	1						
Nc1nc2c(ncn2COCCO)c(=O)[nH]1 [ACYCLOVIR]	> 444				2.08		2.27												CC50 at 72 h [21]: > 444 µM
